Target: T1, human RXFP1 (Homo sapiens, UniProt Q9HBX9)
T1 sequence (Q9HBX9 1-757): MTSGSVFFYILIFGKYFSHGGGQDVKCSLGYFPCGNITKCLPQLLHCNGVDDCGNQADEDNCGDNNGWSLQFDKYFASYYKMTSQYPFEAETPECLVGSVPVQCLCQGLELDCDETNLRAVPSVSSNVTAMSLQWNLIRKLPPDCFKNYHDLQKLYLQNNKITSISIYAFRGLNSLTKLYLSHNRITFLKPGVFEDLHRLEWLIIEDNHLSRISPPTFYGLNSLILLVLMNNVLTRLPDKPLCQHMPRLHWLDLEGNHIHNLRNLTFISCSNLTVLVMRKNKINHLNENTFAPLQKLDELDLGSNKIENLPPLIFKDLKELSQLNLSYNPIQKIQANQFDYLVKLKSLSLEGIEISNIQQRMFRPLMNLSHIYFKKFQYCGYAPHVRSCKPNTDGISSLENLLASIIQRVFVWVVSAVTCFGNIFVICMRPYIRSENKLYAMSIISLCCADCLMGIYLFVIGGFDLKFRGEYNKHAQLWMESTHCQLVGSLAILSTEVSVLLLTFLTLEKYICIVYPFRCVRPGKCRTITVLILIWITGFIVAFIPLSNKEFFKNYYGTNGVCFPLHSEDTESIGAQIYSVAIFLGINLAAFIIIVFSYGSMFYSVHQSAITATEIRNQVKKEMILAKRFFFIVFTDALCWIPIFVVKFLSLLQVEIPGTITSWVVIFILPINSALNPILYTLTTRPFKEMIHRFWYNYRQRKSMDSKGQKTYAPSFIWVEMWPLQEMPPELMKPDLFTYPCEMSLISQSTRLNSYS
Test: RXFP1 Hu cAMP (Test A)
Assay type: cell-based
Parameters: expressed in transfected cells; host or cells: Jump-In T-REx CHO-K1 cells (ThermoFisher), induced with 10 ng/ml doxycycline for 24 h
Conditions: RXFP1 Hu cAMP; for EC50: read-out: Test A EC50
Method in brief: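 Read-out is HTRF signal, inversely proportional to cAMP, converted to cAMP amount by standard curve. Stimulation occurred in inducible CHO-K1 cells expressing the human receptor with phosphodiesterases blocked by 0.5 mM IBMX.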

| Test A Sinf [%] | EC50 [µM] | Molecule |
| --- | --- | --- |
| 104 | 0.14 | COc1cc(F)c(OC[C@H]2C[C@@H](C(=O)O)C2)cc1C(=O)N[C@@H]1[C@@H]2CC[C@@H](C2)[C@@H]1C(=O)Nc1cccc(S(=O)(=O)C(F)(F)F)c1 [Example 473, (1S,3s)-3-((2-Fluoro-4-methoxy-5-(((1R,2R,3S,4S)-3-((3-((trifluoromethyl)sulfonyl)phenyl)carbamoyl)bicyclo[2.2.1]heptan-2-yl)carbamoyl)phenoxy)methyl)cyclobutane-1-carboxylic acid] |
| 91 | 0.32 | COc1cc(F)c(O[C@H]2CC[C@@H](NS(C)(=O)=O)CC2)cc1C(=O)N[C@@H]1[C@H]2CC[C@H](C2)[C@@H]1C(=O)Nc1cccc(S(=O)(=O)C(F)(F)F)c1 [Example 459, (1R,2S,3R,4S)-3-(4-Fluoro-2-methoxy-5-(((1s,4S)-4-(methylsulfonamido)cyclohexyl)oxy)benzamido)-N-(3-((trifluoromethyl)sulfonyl)phenyl)bicyclo[2.2.1]heptane-2-carboxamide] |
| 118 | 0.54 | COc1cc(F)c(O[C@H]2CC[C@@](O)(C(=O)O)CC2)cc1C(=O)N[C@@H]1[C@H]2CC[C@H](C2)[C@@H]1C(=O)NCC1(C)CCC1 [Example 507, (1R,4r)-4-(2-Fluoro-4-methoxy-5-(((1S,2R,3S,4R)-3-(((1-methylcyclobutyl)methyl)carbamoyl)bicyclo[2.2.1]heptan-2-yl)carbamoyl)phenoxy)-1-hydroxycyclohexane-1-carboxylic acid] |
| 108 | 0.4 | COc1cc(F)c(O[C@H]2CC[C@@](C)(C(=O)O)CC2)cc1C(=O)N[C@@H]1[C@H]2CC[C@H](C2)[C@@H]1C(=O)NCC1(F)CCC1 [Example 609] |
| 104 | 0.95 | COc1cc(F)c(OCCCCCCCCC(=O)O)cc1C(=O)N[C@@H]1[C@H]2CC[C@H](C2)[C@@H]1C(=O)Nc1cccc(S(=O)(=O)C(F)(F)F)c1 [Example 437] |
| 111 | 1.2 | COc1cc(F)c(OC[C@H]2CC[C@@H](C(=O)O)CC2)cc1C(=O)N[C@@H]1[C@H]2CC[C@H](C2)[C@@H]1C(=O)Nc1cccc(S(=O)(=O)C(F)(F)F)c1 [Example 440] |
| 104 | 0.18 | COc1cc(C#N)c(O[C@H]2CC[C@@](C)(C(=O)O)CC2)cc1C(=O)N[C@@H]1[C@H]2CC[C@H](C2)[C@@H]1C(=O)NC1CC(F)(F)C1 [Example 623] |
| 104 | 0.14 | COc1cc(F)c(O[C@H]2CC[C@@](C)(C(=O)O)CC2)cc1C(=O)N[C@@H]1[C@H]2CC[C@H](C2)[C@@H]1C(=O)NC12CC(C1)C2 [Example 600] |
| 112 | 0.26 | COc1cc(F)c(OCc2ccc(C(=O)O)cc2)cc1C(=O)N[C@@H]1[C@H]2CC[C@H](C2)[C@@H]1C(=O)Nc1cccc(S(=O)(=O)C(F)(F)F)c1 [Example 438] |
| – | > 40 | COc1cc(F)c(O[C@H]2CC[C@@](CO)(C(=O)O)CC2)cc1C(=O)NC1COCC1C(=O)NCC(C)(C)C (single isomer, unassigned) [Example 578, (1R,4s)-4-(2-Fluoro-4-methoxy-5-(((3S*,4R*)-4-(neopentylcarbamoyl)tetrahydrofuran-3-yl)carbamoyl)phenoxy)-1-(hydroxymethyl)cyclohexane-1-carboxylic acid] |
| 76 | – | COc1cc(F)c(OCc2cccc(C(C)(C)C(=O)O)c2)cc1C(=O)N[C@H]1[C@@H](C(=O)Nc2cccc(S(=O)(=O)C(F)(F)F)c2)[C@@H]2C=C[C@H]1C2 (racemic) [Example 454] |
| 96 | 0.044 | COc1cc(F)c(O[C@H]2CC[C@@](C)(C(N)=O)CC2)cc1C(=O)N[C@@H]1[C@@H]2CC[C@@H](C2)[C@@H]1C(=O)NCC1(C)CCC1 [Example 421, (1S,2S,3R,4R)-3-(5-(((1s,4S)-4-Carbamoyl-4-methylcyclohexyl)oxy)-4-fluoro-2-methoxybenzamido)-N-((1-methylcyclobutyl)methyl)bicyclo[2.2.1]heptane-2-carboxamide] |
| – | > 40 | COc1cc(F)c(O[C@H]2CC[C@@](C)(C(=O)O)CC2)cc1C(=O)NC1C2C=CC(CC2)C1C(=O)NCC1(C)CCC1 (single isomer, unassigned) [Example 544, (1R,4s)-4-(2-Fluoro-4-methoxy-5-(((1R*,2S*,3R*,4S*)-3-(((1-methylcyclobutyl)methyl)carbamoyl)bicyclo[2.2.2]oct-5-en-2-yl)carbamoyl)phenoxy)-1-methylcyclohexane-1-carboxylic acid] |
| – | > 40 | COc1cc(F)c(O[C@H]2CC[C@@](C)(C(=O)O)CC2)cc1C(=O)N[C@@H]1[C@H]2CC[C@H](C2)[C@@H]1C(=O)NCC(C)(C)O [Example 611] |

Second part, the molecule before the results:

| Molecule | Test A Sinf [%] | EC50 [µM] |
| --- | --- | --- |
| COc1cc(C#N)c(O[C@H]2CC[C@@](C)(C(=O)O)CC2)cc1C(=O)Nc1cc(C)ccc1C(=O)NC12CC(C1)C2 [Example 173] | 126 | 0.19 |
| COc1cc(C#N)c(O[C@H]2CC[C@@](C)(C(=O)O)CC2)cc1C(=O)N[C@@H]1[C@H]2CC[C@H](C2)[C@@H]1C(=O)NC[C@H]1C[C@@H](C)C1 [Example 124] | 101 | 0.16 |
| COc1cc(C)c(O[C@H]2CC[C@@](C)(C(=O)O)CC2)cc1C(=O)N[C@@H]1[C@H]2CC[C@H](C2)[C@@H]1C(=O)NC12CC(F)(C1)C2 [Example 382] | 90 | 0.13 |
| COc1cc(C#N)c(O[C@H]2CC[C@@](C)(C(=O)O)CC2)cc1C(=O)N[C@@H]1[C@H]2CC[C@H](C2)[C@@H]1C(=O)NC1CCCC1 [Example 139] | 95 | 0.16 |
| COc1cc(F)c(O[C@H]2CC[C@@](C)(C(=O)O)CC2)cc1C(=O)N[C@@H]1COCC[C@@H]1C(=O)Nc1cccc(S(=O)(=O)C(F)(F)F)c1 (racemic) [Example 340] | 100 | 1.8 |
| COc1cc(F)c(O[C@H]2CC[C@@](C)(C(=O)O)CC2)cc1C(=O)N[C@@H]1[C@@H](OC)CC[C@@H]1C(=O)Nc1cccc(S(=O)(=O)C(F)(F)F)c1 (racemic) [Example 359] | 91 | 0.17 |
| COc1cc(C#N)c(O[C@H]2CC[C@@](C)(C(=O)O)CC2)cc1C(=O)N[C@@H]1CC[C@@H]1C(=O)NCC1(C)CCC1 (racemic) [Example 348] | 101 | 0.56 |
| COc1cc(F)c(-c2ccc(C(N)(CO)CO)cc2)cc1C(=O)N[C@@H]1[C@H]2CC[C@H](C2)[C@@H]1C(=O)Nc1cccc(S(=O)(=O)C(F)(F)F)c1 [Example 265, (1R,2S,3R,4S)-3-(4′-(2-Amino-1,3-dihydroxypropan-2-yl)-6-fluoro-4-methoxy-[1,1′-biphenyl]-3-carboxamido)-N-(3-((trifluoromethyl)sulfonyl)phenyl)bicyclo[2.2.1]heptane-2-carboxamide] | 78 | – |
| COc1cc(F)c(-c2cccc(C(=O)O)c2)cc1C(=O)N[C@@H]1CCC[C@@H]1C(=O)Nc1cccc(S(=O)(=O)C(F)(F)F)c1 (racemic) [Example 300] | 78 | 3.9 |
| COc1cc(F)c(Cn2ccc(C(=O)O)n2)cc1C(=O)N[C@@H]1[C@H]2CC[C@H](C2)[C@@H]1C(=O)Nc1cccc(S(=O)(=O)C(F)(F)F)c1 [Example 222, 1-(2-Fluoro-4-methoxy-5-(((1S,2R,3S,4R)-3-((3-((trifluoromethyl)sulfonyl)phenyl)carbamoyl)bicyclo[2.2.1]heptan-2-yl)carbamoyl)benzyl)-1H-pyrazole-3-carboxylic acid] | – | > 40 |
| (1R,4s)-4-(2-Fluoro-4-methoxy-5-(((1S*,2S*,3R*,4R*)-3-((3-((trifluoromethyl)sulfonyl)phenyl)carbamoyl)bicyclo[2.2.1]heptan-2-yl)carbamoyl)phenoxy)-1-methylcyclohexane-1-carboxylic acid [Example 587] | 113 | – |
| COc1cc(F)c(O[C@H]2CC[C@@](C)(C(=O)O)CC2)cc1C(=O)N[C@@H]1[C@@H](O)[C@@H](O)C[C@@H]1C(=O)Nc1cccc(S(=O)(=O)C(F)(F)F)c1 (racemic) [Example 394, (1R,4s)-4-(5-(((1SR,2RS,3SR,5SR)-2,3-Dihydroxy-5-((3-((trifluoromethyl)sulfonyl)phenyl)carbamoyl)cyclopentyl)carbamoyl)-2-fluoro-4-methoxyphenoxy)-1-methylcyclohexane-1-carboxylic acid] | – | > 40 |
| COc1cc(C#N)c(O[C@H]2CC[C@@](C)(C(=O)O)CC2)cc1C(=O)N[C@@H]1[C@H]2CC[C@H](C2)[C@@H]1C(=O)NCCC1CC1 [Example 133] | 100 | 0.45 |
| COc1cc(F)c(-c2ccc(C(=O)O)cc2)cc1C(=O)N[C@H]1[C@@H](C(=O)N[C@@H]2CCCN(S(=O)(=O)C(F)(F)F)C2)[C@@H]2C=C[C@H]1C2 (racemic) [Example 312] | 50 | 7.5 |

Reference: patent publication US11667602B2, “Compounds and their use” (AstraZeneca AB, priority 2020, dated 2023)
